Measurements taken from the supplement of paper PMC10307832.

Key:
Assay in all cases: relative viability (nuclei count vs DMSO), 5 days (fraction); higher = more cells survive
[1] = compound: C[As](C)SC[C@H](NC(=O)CC[C@H](N)C(=O)O)C(=O)NCC(=O)O [Darinaparsin] + C[C@]1(O)C[C@@H](c2nc(-c3ccc4ccc(-c5ccccc5)nc4c3)c3c(N)nccn32)C1 [Linsitinib] (partner 1 µM)
Procedure, shortened: (§1)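 Medians of duplicate plates are given as relative viability. That measure is the nuclei count in treated wells divided by the count in vehicle wells. Counts were taken on 4× images of lung cancer cell lines in 1536-well plates, 5 days after pin-tool dosing the day after seeding with one drug alone or a fixed anchor-drug dose plus five library-drug doses (not always all listed) in √10 steps.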

[2] = compound: C1CC2=C(C1)C=C(C=C2)OC3=NC(=C4C(=N3)N(C=N4)CC5=CC=C(C=C5)C6=CC=CC=C6)N[C@@H](CC7=CC=CC=C7)CO [QS11] + CC(=O)c1c(C)c2cnc(Nc3ccc(N4CCNCC4)cn3)nc2n(C2CCCC2)c1=O [Palbociclib] (partner 0.5 µM)
Procedure, shortened: as §1

[3] = compound: C[As](C)SC[C@H](NC(=O)CC[C@H](N)C(=O)O)C(=O)NCC(=O)O [Darinaparsin] + CC1(C)CCC(c2ccc(Cl)cc2)=C(CN2CCN(c3ccc(C(=O)NS(=O)(=O)c4ccc(N[C@H](CCN5CCOCC5)CSc5ccccc5)c(S(=O)(=O)C(F)(F)F)c4)cc3)CC2)C1 [Navitoclax] (partner 0.5 µM)
Procedure, shortened: as §1

[4] = compound: C1CC2=C(C1)C=C(C=C2)OC3=NC(=C4C(=N3)N(C=N4)CC5=CC=C(C=C5)C6=CC=CC=C6)N[C@@H](CC7=CC=CC=C7)CO [QS11] + CS(=O)(=O)N1CCN(Cc2cc3nc(-c4cccc5[nH]ncc45)nc(N4CCOCC4)c3s2)CC1 [Pictilisib] (partner 1 µM)
Procedure, shortened: as §1

Cell Line	relative viability ([1]; first compound 0.08 µM)	relative viability ([1]; first compound 0.8 µM)	relative viability ([1]; first compound 2.53 µM)	relative viability ([1]; first compound 8 µM)	relative viability ([2]; first compound 0.08 µM)	relative viability ([2]; first compound 0.253 µM)	relative viability ([2]; first compound 0.8 µM)	relative viability ([2]; first compound 2.53 µM)	relative viability ([2]; first compound 8 µM)	relative viability ([3]; first compound 0.08 µM)	relative viability ([3]; first compound 0.8 µM)	relative viability ([3]; first compound 2.53 µM)	relative viability ([3]; first compound 8 µM)	relative viability ([4]; first compound 0.08 µM)	relative viability ([4]; first compound 0.253 µM)	relative viability ([4]; first compound 0.8 µM)	relative viability ([4]; first compound 2.53 µM)	relative viability ([4]; first compound 8 µM)
201T	1.04	1.03	1.04	1.06	0.369	0.406	0.345	0.395	0.277	1.21	1.15	1.19	1.12	0.669	0.599	0.634	0.672	0.611
A549	0.756	0.612	0.389	0.632						1.42	1.29	1.16	1.33	0.623	0.558	0.396	0.41	0.208
A-427	1.2	1.09	1.13	1.12	0.553	0.582		0.551	0.574	0.961	1	1.03	0.98	0.546	0.788		0.608	0.824
ABC-1	0.801	0.849	0.735	1.04	0.805	0.782	0.652	0.64	0.5					0.657	0.6	0.651	0.764	1.06
BEN	0.947	1.02	0.764	1.11	0.479	0.481	0.501	0.52	0.502	0.0561	0.0673	0.0517	0.0548	0.554	0.641	0.529	0.524	0.705
Calu-6	1.06	1.06	0.815	1.05						1.13	0.921	0.752	0.745	1.02	0.907	0.918	1.15	1
ChaGo-K-1						0.955	1.02	1.02	1.07	1.19	0.905	1.05	0.956		0.841	0.882	1.24	1.05
EBC-1	1.12	0.942	0.864	1.15						0.4	0.351	0.375	0.352	0.331	0.266	0.404	0.454	0.478
IA-LM	0.949	0.8	0.533	0.681						1.15	0.974	0.969	0.739	0.387	0.343		0.257	0.354
LCLC-103H	1.12	1.05	0.936	1.24	0.498	0.506		0.535	0.481					0.636	0.543	0.591	0.74	0.609
NCI-H358	0.753	0.601	0.665	0.68	0.132	0.128	0.134	0.159	0.118					0.338	0.315	0.387	0.564	0.553
NCI-H522					0.766	0.841	0.987	1.15	1.19									
NCI-H596	1.3	0.934	0.928	1.27						1.3	1.11	0.83	1.23	0.382	0.189	0.516	0.404	0.438
NCI-H650	1.26	0.9	0.801	0.871	0.328	0.34	0.304	0.286	0.327					0.861	0.939	0.902	0.876	0.958
NCI-H661	0.558	0.569	0.526	0.593	0.379	0.374	0.332	0.402	0.34					0.424	0.397	0.407	0.376	0.383
NCI-H1299	1.1	1	0.912	1.2						1.03	1.08	1.04	1.1	0.725	0.791	0.648	0.736	0.567
NCI-H1563	1.23	1.14	1.21	1.3										0.718	0.703	0.68	0.586	0.617
NCI-H1648					0.279	0.265	0.331	0.294	0.294									
NCI-H1650					0.354	0.251	0.271	0.355	0.245	1.7	1.17	1.14	1.28	0.671	0.458	0.584	0.584	0.524
NCI-H1703	1.42	0.774	0.797	0.799						1.63	1.27	1.32	0.926	0.281	0.242	0.264	0.253	0.344
NCI-H2170					0.391	0.472	0.291	0.365	0.371	0.615	0.524	0.559	0.69	0.326	0.356	0.327	0.276	0.263
NCI-H2342					0.52	0.541	0.515	0.474	0.491									
SW 900					0.588	0.593	0.456	0.481	0.425									
